Measurements: EP3325012B1, “CINEOLE-CONTAINING COMPOSITION FOR TREATING NOSE POLYPS” (Maria Clementine Martin Klosterfrau Vertriebsgesellschaft …, priority 2015, dated 2017)

Legend:
[1] = system: kultivierte Zellen aus der Nasenschleimhaut; experiment: Proliferation of cultured nasal mucosa (epithelial) cells; type: cell-based, Mensch; conditions: treatment with 1,8-Cineol (Figur 2B)
Description: Material und Methoden: Die Anmelderin hat Gewebeproben aus Nasenpolypen und unteren Nasenmuscheln von Patienten mit CRSwNP (chronischer Rhinosinusitis mit Nasenpolypen) und aus unteren Nasenmuscheln von Probanden ohne chronische Sinusitis (gesunde Schleimhaut) auf Basis von immunohistochemischen Methoden und Immunoblot-Verfahren untersucht. Die zelluläre Proliferation und Migration wurden unter Einsatz des xCELLigence Real Time Cell Analyzer untersucht.
Die Zellproliferation wurde mittels eines quantitativen kolorimetrischen 3-(4,5-Dimethylthiazol 2-yl)-2,5-diphenyltetrazoliumbromid-basierten (MTT) Zelltests bestimmt. Dieser Test bestimmt die Anzahl an lebensfähigen Zellen auf Basis der mitochondrialen Umwandlung von MTT.
Die Proliferation wurde mittels eines MTT-Tests von Sigma-Aldrich ("In Vitro Toxicology Assay Kit") entsprechend den Instruktionen des Herstellers ermittelt.
Im Vergleich zur gesunden Nasenschleimhaut weisen Nasenpolypen eine andere Morphologie auf, was anhand von immunohistochemischen Färbungen mit Hämatoxylin-Eosin (HE) an gefrorenen Gewebeschnitten gezeigt werden konnte (Figur 1). Mit dieser Färbemethode werden basophile Strukturen mit Blau-Lila und eosinophile Strukturen mit hellem Pink angefärbt, wohingegen hydrophobe Strukturen, wie die Membranen des Golgi-Apparats, ungefärbt bzw. klar bleiben. […]

GSK-3-alpha/beta = experiment: Western blot of phospho-GSK-3 (Ser-9/-21) in nasal polyp samples; type: cell-based, Mensch; conditions: 100 µM, 24 h (Figur 4A)
Protocol: Lysate von Geweben wurden durch Erhitzen über einen Zeitraum von 5 Minuten in einfachem SDS-Probenpuffer (Carl Roth GmbH, Karlsruhe, Deutschland) denaturiert. Die Proteinkonzentrationen wurden mittels des Bradford-Tests bestimmt und jeweils 30 µg Gesamtprotein wurden zur SDS-Polyacrylamid-Gel Elektrophorese eingesetzt (Mini-Protean TGX®, Any kD, BioRad, Hercules, CA, USA) und anschließend auf Nitrozellulosemembranen übertragen. Die Übertragung der Proteine wurde mittels Ponceau-Färbung kontrolliert. […]
Um die Beladungsmenge jeder Spur zu bestimmen, wurden die Nitrozellulosemembranen über Nacht bei 4 °C mit einem primären Antikörper der GAPDH (Cell Signaling Technology Inc., Massachusetts, Katalognummer: 14C10) in einer Verdünnung von 1 : 1.000 inkubiert. […] Die Pixeldichten wurden quantifiziert und mittels Fusion FX7® unter Einsatz von Bio-1D Software® dokumentiert. […]

Fibroblastenzelllinie = experiment: MTT assay, vitality and proliferation of a fibroblast cell line; type: cell-based; conditions: 1 mM bis 10 mM, 250 Stunden
Protocol: Es wurden weiterführende Untersuchungen durchgeführt zur Analyse des Einflusses von Cineol auf die Vitalität und Proliferation verschiedener permanenter Zelllinien. Hierzu wurden einerseits die zwei HNSCC-Zelllinien und des Weiteren eine Fibroblastenzelllinie verwendet. Diese wurden über einen Zeitraum von 250 Stunden mit verschiedenen Cineol-Konzentrationen kultiviert (1 mM bis 10 mM) und die Vitalität der Zellen wurde jeweils mittels eines MTT-Assays untersucht.

CC12CCC(CC1)C(C)(C)O2 [1,8-Cineol, 1,3,3-Trimethyl-2-oxabicyclo[2.2.2]octan]
Proliferation kultivierter Zellen aus der Nasenschleimhaut [1]: nicht beeinflusst | Phosphorylierung von GSK-3-alpha/beta an Serin-9/-21 (GSK-3-alpha/beta): verringerten Phosphorylierung | Progression und Vitalität von Fibroblasten (Fibroblastenzelllinie): inhibierender Einfluss
